In ChEMBL document CHEMBL4043139, “Fluoro and pentafluorothio analogs of the antitumoral curcuminoid EF24 with superior antiangiogenic and vascular-disruptive effects” (Bioorg Med Chem, 2017):
pIC50: −log10 of the molar value.

Tests used:
Type in all cases: functional, cell-based
[1] = (§1) Cytotoxicity against human KB-V1/Vbl cells after 72 hrs by MTT assay
[2] = system: KB-V1/Vbl; test: as §1
[3] = (§2) Cytotoxicity against human MCF7/Topo cells after 72 hrs by MTT assay
[4] = system: MCF7/Topo; test: as §2
[5] = system: DLD-1; test: Cytotoxicity against human DLD1 cells after 72 hrs by MTT assay; conditions: for pIC50: DLD-1, 72 h
[6] = system: HCT-116; test: Cytotoxicity against human HCT116 cells after 72 hrs by MTT assay; conditions: for pIC50: HCT-116, 72 h
[7] = system: PANC-1; test: Cytotoxicity against human PANC1 cells after 72 hrs by MTT assay; conditions: for pIC50: PANC-1, 72 h
[8] = system: 518A2; test: Cytotoxicity against human 518A2 cells after 72 hrs by MTT assay; conditions: for pIC50: 518A2, 72 h
[9] = system: HT-29; test: Cytotoxicity against human HT-29 cells after 72 hrs by MTT assay; conditions: for pIC50: HT-29, 72 h

| Compound | pIC50 [1] | Activity [2] | pIC50 [3] | Activity [4] | Activity [5] | pIC50 [5] | Activity [6] | pIC50 [6] | Activity [7] | pIC50 [7] | Activity [8] | pIC50 [8] | Activity [9] | pIC50 [9] |
| --- | --- | --- | --- | --- | --- | --- | --- | --- | --- | --- | --- | --- | --- | --- |
| CCN1C/C(=C\c2cc(F)c(F)cc2F)C(=O)/C(=C/c2cc(F)c(F)cc2F)C1 | 6.19 | Dose-dependent effect | 5.96 | Dose-dependent effect | Dose-dependent effect | 6.28 | Dose-dependent effect | 6.29 | Dose-dependent effect | 6.08 | Dose-dependent effect | 5.82 | Dose-dependent effect | 6.16 |
| CN1C/C(=C\c2ccccc2F)C(=O)/C(=C/c2ccccc2F)C1 | 5.74 | Dose-dependent effect | 5.64 | Dose-dependent effect | Dose-dependent effect | 6.09 | Dose-dependent effect | 5.89 | Dose-dependent effect | 5.66 | Dose-dependent effect | 5.74 | Dose-dependent effect | 5.66 |
| CCN1C/C(=C\c2ccccc2F)C(=O)/C(=C/c2ccccc2F)C1 | 5.51 | Dose-dependent effect | 5.70 | Dose-dependent effect | Dose-dependent effect | 6.03 | Dose-dependent effect | 5.74 | Dose-dependent effect | 5.77 | Dose-dependent effect | 5.74 | Dose-dependent effect | 5.28 |
| CCN1C/C(=C\c2ccc(F)cc2F)C(=O)/C(=C/c2ccc(F)cc2F)C1 | 5.92 | Dose-dependent effect | 5.74 | Dose-dependent effect | Dose-dependent effect | 6.02 | Dose-dependent effect | 5.70 | Dose-dependent effect | 5.64 | Dose-dependent effect | 5.62 | Dose-dependent effect | 5.51 |
| CCN1C/C(=C\c2cc(F)cc(F)c2)C(=O)/C(=C/c2cc(F)cc(F)c2)C1 | 5.57 | Dose-dependent effect | 6.00 | Dose-dependent effect | Dose-dependent effect | 6.19 | Dose-dependent effect | 6.26 | Dose-dependent effect | 5.96 | Dose-dependent effect | 5.48 | Dose-dependent effect | 5.68 |
| CN1C/C(=C\c2ccc(F)c(F)c2)C(=O)/C(=C/c2ccc(F)c(F)c2)C1 | 6.00 | Dose-dependent effect | 5.89 | Dose-dependent effect | Dose-dependent effect | 6.33 | Dose-dependent effect | 6.29 | Dose-dependent effect | 5.82 | Dose-dependent effect | 5.82 | Dose-dependent effect | 5.82 |
| CCN1C/C(=C\c2c(F)cc(F)cc2F)C(=O)/C(=C/c2c(F)cc(F)cc2F)C1 | 5.92 | Dose-dependent effect | 5.68 | Dose-dependent effect | Dose-dependent effect | 5.85 | Dose-dependent effect | 5.96 | Dose-dependent effect | 5.89 | Dose-dependent effect | 5.70 | Dose-dependent effect | 5.70 |
